In US20250149635A1, “SILICATE PLATFORM AS WEAKLY-COORDINATING ANIONS FOR DIVERSE ORGANOMETALLIC TRANSFORMATIONS AND ELECTROCHEMICAL APPLICATIONS” (California Institute of Technology, priority 2023, published 2025):

Columns and labels:
[1] = Cyclic voltammetry of Mg deposition/stripping in DME; assay type: physicochemical; details: for deposition overpotential: 0.25-0.26 M in DME with 10 mM Me2Mg, Pt wire WE, 25 mVs^−1; for oxidative stability: in DME, with 10 mM Me2Mg, sweep to 4.75 V
Procedure: FIG. 14A: Cyclic voltammetry experiments of 0.26 M 1-[Mg(DME)3] with 10 mM of Me2Mg. WE: Pt wire; CE: Mg strip; RE: Mg strip; Scan rate: 25 mVs^−1; Cycling protocol: −0.8 V to 4.0 V, 100 cycles. FIG. 14B: Cycles 1, 25, 50, 75, 100. FIG. 14C: Coulombic efficiency cycles 1-100; Cyclic voltammetry experiments of 0.26 M 1-[Mg(DME)3] with 10 mM of Me2Mg.
FIG. 15A: Cyclic voltammetry experiments of 0.25 M 2-[Mg(DME)3] with 10 mM of Me2Mg. WE: Pt wire; CE: Mg strip; RE: Mg strip; Scan rate: 25 mVs^−1; Cycling protocol: −0.8 V to 3.8 V, 100 cycles; FIG. 15B: Cycles 1, 25, 50, 75, 100. FIG. 15C: Coulombic efficiency cycles 1-100; Cyclic voltammetry experiments of 0.25 M 2-[Mg(DME)3] with 10 mM of Me2Mg.
FIG. 20: Cyclic voltammetry experiments of 0.26 M 1-[Mg(DME)3] in DME.WE: Pt wire; CE: Mg strip; RE: Mg strip; Scan rate: 25 mVs^−1; Cycling protocol: −0.8 V to 4.0 V, 200 cycles.
Cyclic voltammetry experiments of 1-[Mg(DME)3] were run in an empty N2-filled glovebox fitted with a purifier system that consists of a purifier cartridge (ca. 50% activated 4 Å molecular sieves and activated Cu catalyst) and a circulator fan, no solvent or chemicals were stored in the glovebox. Electrolyte solutions were prepared in a separate glovebox by dissolving 1-[Mg(DME)3] in 500 μL of DME and stirred with a new Teflon stir bar until complete dissolution. DME and 1-[Mg(DME)3] were only used with the glovebox circulation purifier turned off after extensive (minimum 20 minutes at […] above atmospheric pressure to ensure full atmosphere exchange) purging of the glovebox atmosphere to avoid cross-contamination with other atmospheric solvents. Upon complete dissolution of the electrolyte, the electrolyte solution was sealed and transported to the electrochemistry glovebox immediately before electrochemical experiments were performed.
Mg electrodes (99.9%, MTI) were polished with a razor blade immediately before use. Pt electrodes (wire, 0.5 mm diameter, 99.995%, Thermo Scientific) were soaked in concentrated HNO3 for at least 72 hours, rinsed with deionized water at least thrice, annealed with an H2 torch, and immediately brought into the glovebox in a flame-dried 20 mL scintillation vial while hot. Cyclic voltammetry experiments of 1-[Mg(DME)3] were performed in glass cells with 0.5 mL of electrolyte. A Pt wire served as the working electrode (WE), and Mg foils were the counter and reference electrodes (CE and RE). Experiments of 1-[Mg(DME)3] were conducted on either a Biologic SP150 potentiostat or a Biologic VSP-300 potentiostat.

[2] = Cyclic and linear sweep voltammetry of 0.1 M tetra-n-butylammonium salts in MeCN (electrochemical stability window); assay type: physicochemical
From the text: FIG. 12: Cyclic voltammetry and linear sweep voltammetry experiments of 0.1 M 1-[Bu4N] and [Bu4N][PF6] in MeCN; Current shown were normalized to the highest current in each experiment; FIG. 12A: Cyclic voltammogram of 1-[Bu4N] in MeCN; WE: Glassy carbon; CE: Pt wire; RE: Ag wire; scan rate=100 mVs^−1; FIGS. 12B and 12C: Linear sweep voltammograms of 0.1 M 1-[Bu4N] and [Bu4N][PF6] in MeCN; WE: Glassy carbon; CE: Pt wire; RE: Ag wire; scan rate=50 mVs^−1.
Linear sweep voltammetry experiments of 1-[Bu4N] and [Bu4N][PF6] were performed under an N2 atmosphere using a Pine Instrument Company AFCBP1 bipotentiostat using the AfterMath software package. Linear sweep voltammograms were recorded in the glovebox at 25° C. with an auxiliary Pt-coil counter electrode, Ag-wire reference electrode, and 3.0 mm glassy carbon working electrode (BASI). The electrolyte solution was 0.1 M of the corresponding tetra-n-butylammonium salt in MeCN. All reported values are referenced to an internal ferrocene/ferrocenium couple.

[3] = calculated, literature ref. 47; cited from earlier work
[4] = C2H4/CO copolymerization trials with cationic Pd catalyst
Procedure: In a N2 glovebox, Pd catalyst (10 μmol) was dissolved in toluene (10 mL) was transferred to a Fisher-Porter vessel. The reactor was removed from the glovebox and connected to a C2H4/CO gas feed. The N2 atmosphere was replaced with a 1:1 mixture of C2H4/CO (flow rate 300 sccm for each gas) by pressurizing the vessel to 100 psi and venting 3×. After pressurizing to 100 psi, polymerization was run for 3 hr at RT. The reaction was quenched upon exposure to air, and the polymer was precipitated by stirring with acidic methanol (0.6 mL HCl/10 mL MeOH). The polymer was collected and dried under vacuum overnight.
NMRs were recorded in a mixture of 1, 1, 1, 3, 3, 3-hexafluoro-2-propanol and C6D6 (4:1) at RT.

[5] = Solubility determination by 19F NMR with fluorobenzene internal standard
Procedure: Each sample was filtered, and 600 μL was transferred to a new vial. Fluorobenzene (5 μL) was added as an internal standard to the filtered solution and mixed thoroughly via pipette.

[6] = 0.1 M Bu4N salt in MeCN, glassy carbon WE
[7] = 10 μmol Pd catalyst in toluene, 100 psi 1:1 C2H4/CO, 3 hr at RT

With COCCOC.COCCOC.COCCOC.C[Si-]12(OC(C(F)(F)F)(C(F)(F)F)C(C(F)(F)F)(C(F)(F)F)O1)OC(C(F)(F)F)(C(F)(F)F)C(C(F)(F)F)(C(F)(F)F)O2.C[Si-]12(OC(C(F)(F)F)(C(F)(F)F)C(C(F)(F)F)(C(F)(F)F)O1)OC(C(F)(F)F)(C(F)(F)F)C(C(F)(F)F)(C(F)(F)F)O2.[Mg+2] [1-[Mg(DME)3], [Mg(DME)3][^MeSi^F24]2] the deposition overpotential [1] was “ca. −420 mV vs. Mg/Mg^2+”, the “reductive overpotential, stabilized over continuous cycling” value ([1]; 0.26 M in DME, absence of Me2Mg) was “ca. 400 mV” and the “coulombic efficiency, stabilized with cycling” value ([1]; 0.26 M in DME, absence of Me2Mg, −0.8 to 2.0 V vs. Mg/Mg^2+) was “ca. 96%”.
In the case of F[P-](F)(F)(F)(F)F [PF6^−, reference compound], the reductive stability [2, 6] is reported as “ca. −3.1 V vs. Fc/Fc^+”.
For [F][Sb]([F])([F])([F])[F] [SbF5], the fluoride affinity [3] is given as 501 kJ/mol.
With CC#N.FC(F)(F)c1cc([B-](c2cc(C(F)(F)F)cc(C(F)(F)F)c2)(c2cc(C(F)(F)F)cc(C(F)(F)F)c2)c2cc(C(F)(F)F)cc(C(F)(F)F)c2)cc(C(F)(F)F)c1.[CH3][Pd+]1[PH](c2ccccc2)(c2ccccc2)CC[PH]1(c1ccccc1)c1ccccc1 [[Pd(dppe)(NCMe)Me]^+[BAr^F24]^−, [Pd(dppe)(NCMe)Me][BAr^F24], reference compound] the Activity [4, 7] was 2.28 g/mmol/h, the “Polymer Yield” value [4, 7] was 68.6 and the Activity ([4]; 100 psi of C2H4/CO) was 2.3 g/mmol/h.
For C[Si-]12(OC(C(F)(F)F)(C(F)(F)F)C(C(F)(F)F)(C(F)(F)F)O1)OC(C(F)(F)F)(C(F)(F)F)C(C(F)(F)F)(C(F)(F)F)O2 [[^MeSi^F24]], the “oxidative stability (stable up to)” value [2, 6] was “up to 4.5 V vs. Fc/Fc^+”, the reductive stability [2, 6] was “ca. −3.1 V vs. Fc/Fc^+” and the electrochemical stability window ([2]; in MeCN) was 7.5 V. For the same compound, the “oxidative stability surpassing that of PF6^−” value ([2]; in MeCN, versus [Bu4N][PF6]) was “ca. 1 V” and the oxidative stability [1] was “ca. 4.2 V vs. Mg/Mg^2+”.
For (MeCN)Si(O2C6F12)2, the fluoride affinity [3] is listed as 474 kJ/mol.
For [Bu4N][^MeSi^F24] [1-[Bu4N]], the electrochemical stability window ([2]; in MeCN) was “ca. 7.5 V”.
With [K][^tBu2ArSi^F24] [3-[K]] the “solubility in CH2Cl2 (in words)” value ([5]; CH2Cl2) was “high solubility”, the solubility in benzene ([5]; in benzene, stirred 16 hr, filtered, 19F NMR) was 0.1 mmol/L and the solubility in dichloromethane ([5]; in dichloromethane, 19F NMR) was 0.4 mmol/L.
For [Mg(DME)3][^PhSi^F24]2 [2-[Mg(DME)3]], the deposition overpotential [1] was “ca. −350 mV vs. Mg/Mg^2+” and the oxidative stability [1] was “ca. 4.05 V vs. Mg/Mg^2+”.
For “[Pd(dppe)(NCMe)Me][^tBu2ArSi^F24] [3-[Pd(dppe)(NCMe)Me]]”, the Activity [4, 7] was 1.67 g/mmol/h, the “Polymer Yield” value [4, 7] was 50.2 and the Activity ([4]; 100 psi of C2H4/CO) was 1.7 g/mmol/h.
With [Pd(dppe)(NCMe)Me]^+[^MeSi^F24] the Activity [4, 7] was 1.06 g/mmol/h and the “Polymer Yield” value [4, 7] was 31.9.
